Results on eleven molecules are retold here after publication PMC11571215, “Optimization of Antiproliferative Properties of Triimine Copper(II) Complexes” (Journal of Medicinal Chemistry, 2024).

Like-named read-outs stand apart in the source and are kept apart here.

Assay [1] relates to A2780 cells (ovarian carcinoma). Further details: method as in PMID 29688241. Particulars: previously published complex, cited from earlier work.
Assay [2] has as its system normal human primary dermal fibroblasts. Further details: method as in PMID 29688241. As to conditions: 48 h; previously published complex; cited from earlier work.
In assay [3] the test system is HCT116 cells (colorectal carcinoma). Further details: method as in PMID 29688241. Particulars: previously published complex, cited from earlier work.
Assay [4] concerns HCT116-DoxR cells (doxorubicin resistant colorectal carcinoma). As to the kind of experiment: MTS cell viability assay, HCT116-DoxR 2D. Particulars: for IC50: 48 h of exposure. It counts as cell-based, human. The method, then:
(§1) The antiproliferative effect of the Cu(II) complexes in tumor and healthy cell lines was assessed through the MTS assay, a colorimetric method that is widely used to evaluate cellular viability, specifically mitochondrial viability.[53],[54] Cellular viability was determined after 48 h exposure to a concentration range (0.1–50 μM) of Cu(II) complexes in three tumor cell lines. […] Additionally, the viability of healthy primary dermal fibroblasts was performed as a comparison of the complexes’ antiproliferative effects in normal cells.
(§2) Cellular viability assays were performed using HCT116, HCT116-DoxR, and A2780 cancer cell lines as well as normal human primary fibroblasts. Cells were seeded at a density of 0.75 × 10^5 cells/mL in 96-well plates and incubated at 37 °C with 5% (v/v) CO2 for 24 h. After this incubation period, the copper complexes were accurately weighed and immediately dissolved in 100% (v/v) dimethyl sulfoxide (DMSO). Subsequently, the complexes were diluted to the final concentration using a cell culture medium. The culture medium in each well was replaced with fresh medium containing varying concentrations of the complexes (ranging from 0.01 to 50 μM). Negative controls contained culture medium with 0.1% (v/v) DMSO, and positive controls contained 0.4 μM Dox.
(§3) After an additional 48 h of incubation under the same conditions, cellular viability was assessed using the CellTiter 96 Aqueous One Solution Cell Proliferation Assay kit (Promega, Madison, USA). Metabolically active cells contain mitochondrial dehydrogenases that can reduce 3-(4,5-dimethylthiazol-2-yl)-5-(3-carboxymethoxyphenyl)-2-(4-sulfophenyl)-2H-tetrazolium, the inner salt (MTS) to formazan. The absorbance of formazan, measured at 490 nm in a microplate reader (Tecan Infinite M200, Tecan, Männedorf, Switzerland), is directly proportional to the number of viable cells.[104]
(§4) The cell viability versus concentration graphics were analyzed using Prism 8 software (GraphPad) to determine the half-maximal inhibitory concentration (IC50) of each complex for the respective cell line. Additionally, the selective index (SI) for each complex was calculated by dividing the IC50 of human fibroblasts by the IC50 values of the tested cancer cell lines.

For assay [5], the system named is normal human primary dermal fibroblasts. As to the kind of experiment: MTS cell viability assay, normal fibroblasts. Type of assay: cell-based. Particulars: 48 h of exposure. The method, then:
as §1, §2
After an additional 48 h of incubation under the same conditions, cellular viability was assessed using the CellTiter 96 Aqueous One Solution Cell Proliferation Assay kit (Promega, Madison, USA). […] The absorbance of formazan, measured at 490 nm in a microplate reader (Tecan Infinite M200, Tecan, Männedorf, Switzerland), is directly proportional to the number of viable cells.[104]
as §4

Assay [6] has as its system HCT116 cells (colorectal carcinoma). As to the kind of experiment: MTS cell viability assay, HCT116 2D. It counts as cell-based, human. The method, then:
as §1, §2, §3, §4

The test system of assay [7] is A2780 cells (ovarian carcinoma). As to the kind of experiment: MTS cell viability assay, A2780. It counts as cell-based, human. As for the experimental part: as §1, §2, §3, §4
The subject of assay [8] is HCT116-DoxR cells (doxorubicin resistant colorectal carcinoma). Further details: method as in PMID 37311060. Particulars: previously determined; read-out: IC50 for the HCT116-DoxR cell line; cited from earlier work.
The subject of assay [9] is HCT116-DoxR cells. The experiment in a line: Autophagy induction (CYTO-ID green, flow cytometry). Type of assay: cell-based, human. As to conditions: 48 h; complexes at IC50, Dox 6 μM, Cis 5 μM, rapamycin 1500 nM. The source says: Furthermore, previous studies have shown that complexes containing terpyridine derivatives have the ability to trigger both apoptosis and autophagy cell death mechanisms in cancer cells simultaneously.[38] This convergence of death pathways may arise from an adaptive response of the heterogeneous tumor cell population.[38] In this context, understanding the mechanism by which cells lose viability in the presence of the two Cu(II) complexes with the simultaneous induction of apoptosis and autophagy becomes crucial. Autophagy is a highly conserved catabolic process crucial for maintaining cellular homeostasis but is also associated with type II programmed cell death.[75] It involves intracellular degradation through autophagolysosomes responsible for breaking down luminal content and enabling recycling of cellular components.[76],[77] The assessment of the complexes’ ability to induce autophagy was conducted using flow cytometry, employing the CYTO-ID green detection reagent. This probe emits green fluorescence, marking the autophagic vacuoles within the cell. Higher fluorescence indicates a greater proportion of autophagolysosomes.[78] Three positive controls were used: Dox, Cis, and rapamycin (1500 nM), whose concentration was previously optimized for the HCT116-DoxR cell line in the laboratory.[64] Rapamycin is known to induce autophagy through its mechanistic target, mTOR.
Cell death via autophagy was evaluated using the Autophagy Assay Kit (ab139484; Abcam, Cambridge, United Kingdom), according to the manufacturers’ instructions. HCT116-DoxR cells were seeded at a density of 1 × 10^5 cells/mL in 6-well plates for 24 h, under the same conditions described before. After this incubation period, the culture medium was replaced with a fresh medium containing the copper complexes under evaluation at their IC50 concentration. A 0.1% (v/v) DMSO solution was used as the negative (vehicle) control, and 6 μM Dox and 5 μM Cis were used as positive controls. The cells were incubated again for 48 h. Rapamycin (1500 nM) was also added as a positive control, and it was added 18 h before the end of the 48 h incubation. After this period, the supernatant was discarded, and each well was washed with PBS 1×. Subsequently, cells were detached using TrypLE Express and washed with phenol red-free DMEM medium containing 5% (v/v) FBS. Cells were incubated with Green Stain Solution in phenol red-free DMEM medium containing 5% (v/v) FBS for 30 min at RT. After this period, the samples were washed and then resuspended in Assay Buffer 1×. The samples were analyzed using an Attune Acoustic Focusing Flow Cytometer (Life Technologies, Carlsbad, USA), and the results were analyzed via the Attune Cytometric software.

The mark [10] stands for this setting: 48 h of exposure, MTS, relative IC50, mean + SEM.
Where [11] appears, read: free ligands, at least two independent assays, read-out: IC50 of ligands HCT116-DoxR.

Take `COc1ccc(-c2cc(-c3ccccn3)nc(-c3ccccn3)c2)c2ccccc12.[Cl][Cu][Cl]` [Cu1c]: the 50% inhibitory concentration (IC50) in [1] (48 h) is 0.95 ± 0.05 µM; in assay [2], 32.78 ± 0.06 µM; in [3] (48 h), 0.4 ± 0.06 µM. The “SI A2780” value in assay [1] (IC50 fibroblasts / IC50 A2780) is recorded as 34.5. Also, the “SI HCT116” value in assay [3] (IC50 fibroblasts / IC50 HCT116) is recorded as 82.

On to `COc1ccc2cc(-c3cc4[n+]5c(c3)-c3cccc[n+]3[Cu-3]5([Cl])([Cl])[n+]3ccccc3-4)ccc2c1` [Cu1d], for which the IC50 in assay [4] (MTS, relative IC50, mean + SEM, read-out: IC50 HCT116-DoxR (2D)) turned out to be 0.31 ± 0.01 µM; in assay [5] it was 6.42 ± 0.5 µM; in assay [6] (setting [10]) it was 0.36 ± 0.04 µM; in [7] (setting [10]) it was 0.48 ± 0.08 µM. Besides, the “SI HCT116-DoxR” value in assay [4] (ratio IC50 fibroblasts / IC50 HCT116-DoxR) was determined as 20.7. The “SI HCT116” value in assay [6] (ratio IC50 fibroblasts / IC50 HCT116) is given as 17.8. Besides, the “SI A2780” value in [7] (ratio IC50 fibroblasts / IC50 A2780) worked out at 13.4.

With `c1ccc(-c2cc(-c3cccc4ccccc34)cc(-c3ccccn3)n2)nc1` [L1a], the IC50 in assay [4] (setting [11]) is about 0.18 µM.

As for `c1ccc(-c2cc(-c3ccc4ccccc4c3)cc(-c3ccccn3)n2)nc1` [L1b], the IC50 in assay [4] (setting [11]) amounted to 0.24 ± 0.4 µM.

As for `COc1ccc2cc(-c3cc(-c4ccccn4)nc(-c4ccccn4)c3)ccc2c1` [L1d], the IC50 in assay [4] (setting [11]) came to 0.2 ± 0.05 µM.

With `c1ccc2c(-c3cc(-c4nccs4)nc(-c4nccs4)c3)cccc2c1` [L2a], the IC50 in assay [4] (setting [11]) was over 50 µM.

In the case of `c1ccc2cc(-c3cc(-c4nccs4)nc(-c4nccs4)c3)ccc2c1` [L2b], the IC50 in assay [4] (setting [11]) was over 50 µM.

Take `COc1ccc(-c2cc(-c3nccs3)nc(-c3nccs3)c2)c2ccccc12` [L2c]: the IC50 in assay [4] (setting [11]) was about 11.5 µM.

Regarding `COc1ccc2cc(-c3cc(-c4nccs4)nc(-c4nccs4)c3)ccc2c1` [L2d], in [4] (setting [11]), the IC50 is about 14.7 µM.

On to `CC(C)(C)OO` [TBHP, Tert-butyl hydroperoxide], for which, in [8], the IC50 was 42 µM.

`CO[C@H]1C[C@@H]2CC[C@@H](C)[C@@](O)(O2)C(=O)C(=O)N2CCCC[C@H]2C(=O)O[C@H]([C@H](C)C[C@@H]2CC[C@@H](O)[C@H](OC)C2)CC(=O)[C@H](C)/C=C(\C)[C@@H](O)[C@@H](OC)C(=O)[C@H](C)C[C@H](C)/C=C/C=C/C=C/1C` [rapamycin, Rapamycin]: the “increase in autophagic vesicles compared to 0.1% DMSO control” value in [9] is listed as “increase in green fluorescence intensity”.
